# In patent publication US20050239889A1, “In vivo release of endogenous anti-microbial mediators by leukotriene B4 (LTB4) administration” (priority 2004, published 2005):
# What was measured:
# [1] = test system: α-Defensins; experiment: Plasma α-Defensins (ELISA) after intravenous LTB4 administration to human subjects, Phase I study; assay type: in vivo
# Procedure: (§1) Plasma samples were obtained from 19 HIV-uninfected human volunteers taking part in a Phase I clinical study on the safety and tolerability of intravenously (i.v.) administered bolus of LTB4. In brief, 3 individuals received saline (placebo) and 16 (4 subjects/group) were administered LTB4 in doses ranging from 0.05 μg/kg to 50 μg/kg per day for 7 consecutive days. Venous blood was collected twice before injection (-5 and -2 minutes) to establish baseline values. Following the i.v. administration of saline or LTB4, blood samples were drawn at 0.5, 1, 2, 4, 6, and 24 hours post-injection into blood collection tubes, using EDTA as anti-coagulant. Immediately after blood collection, the samples were put on ice until processed. All plasma isolation procedures were carried out at 4° C. Plasma samples were stored at −80° C. until assayed by ELISA for α-Defensins (HyCult Biotechnology bv, The Netherlands) and MIP-β(Amersham/Pharmacia, Baie d'Urfé, Canada).
# Healthy volunteers participating in a Phase I clinical study on the safety and tolerability of intravenously administered LTB4, were randomized into 5 groups: placebo (n=3), LTB4 0.05 μg/kg (n=4), LTB4 0.5 μg/kg (n=4), LTB4 5 μg/kg (n=4) and LTB4 50 μg/kg (n=4). LTB4 was administered once daily for 7 consecutive days and plasma samples (0-6 hours post-LTB4 administration) from all 19 volunteers were tested for the presence of α-Defensins using a commercial ELISA kit. The mean ± standard error of α-Defensins releases (ng/ml plasma) for each group are presented in FIG. 1 with statistical analysis performed using the placebos as control group. Healthy individuals received a placebo (3 subjects) or doses of LTB4 ranging form 0.05 μg/kg to 50 μg/kg (n=4 subjects/group). Plasma samples were obtained at various time points before and after LTB4 injections and the α-Defensin levels determined by ELISA. The data shown in FIG. 1 represent the mean ± standard error of α-Defensins (ng/mL plasma) of all subjects within each group. P values were determined by comparing the mean α-Defensin levels of each group that received LTB4 versus the placebo group at the same time points. *p<0.001; **p<0.05. Plasma samples obtained before placebo or LTB4 injections indicate that there were no significant differences in the basal levels of α-Defensins between the groups.
# [2] = test system: MIP-1β; experiment: Plasma MIP-1β (ELISA) after intravenous LTB4 administration to human subjects, Phase I study; assay type: in vivo; details: i.v.
# Procedure: as §1
# Considering that soluble anti-HIV factors include β-chemokines and that neutrophils are capable of producing MIP-1β, we measured the levels of this β-chemokine in plasma of individuals that received a placebo or LTB4 (same cohorts as mentioned above). Plasma samples from healthy subjects that received a placebo (n=3) or LTB4 (5 and 50 μg/kg [n=4 subjects/group]) were obtained at various time points before and after LTB4 injections. Data are expressed as mean ± […] of the mean of MIP-1β levels (pg/ml) for all subjects within each group. P values were determined by comparing the mean MIP-1β levels of each group that received LTB4 versus the placebo group at the same time points. *p<0.025. […] Plasma samples from subjects that received the 2 lowest doses of LTB4 were not tested for MIP-1β.
# [3] = test system: α-Defensins; experiment: Plasma α-Defensins (ELISA) after subcutaneous LTB4 administration to monkeys; assay type: in vivo, Macaca fascicularis; details: macaques
# Procedure: Two macaques (Macaca fascicularis) were used for the study. For subcutaneous injections, the areas to be injected were first shaved one day before dosing. Volumes of 0.075 mL (monkey IJI) or 0.1 mL (monkey JKN) of LTB4 solution were administered subcutaneously in the arm of the animal to compensate for slight difference between both monkeys. Venous blood samples were collected at various time points with all plasma isolation procedures performed at 4° C. Platelet-free plasma samples were stored at −80° C. until assayed for α-Defensins using a commercial ELISA kit (HyCult Biotechnology bv, The Netherlands). We next studied the change in plasmatic concentration of the antimicrobial peptides α-Defensins in monkeys following subcutaneous (s.c.) administration of LTB4. Monkeys were injected s.c. with 5,5 μg/kg or 50 μg/kg of LTB4 and blood samples were taken at various time points and used for (α-Defensins measurements in the plasma, using a commercial ELISA kit. The results obtained are presented in FIGS. 3A (5,5 μg/kg) and 3B (50 μg/kg). Two macaques (IJI and JKN) were injected subcutaneously with 5,5 μg/kg (A) or 50 μg/kg (B) of LTB4. Blood samples were collected at various time points and α-Defensins levels measured in plasma samples using a commecial ELISA kit. Overall, the data obtained indicate that α-Defensins levels in plasma remain relatively stable up to 15 minutes post-LTB4 administration. α-Defensins levels started to increase by 30 minutes and peaked at two hours post LTB4 administration. […] For monkeys that received 50 μg/kg, (α-Defensins levels remained at their highest up to 4 hours post injection, followed by a gradual decrease. In both sets (5,5 μg/kg and 50 μg/kg), the levels of α-Defensins remained above baseline values up to 6 hours following LTB4 delivery
compound,measurement,setting,value
"CCCCC/C=C\C[C@@H](O)/C=C/C=C/C=C\[C@@H](O)CCCC(=O)O [LTB4, 5S,12R-dihydroxy-6,8,10,14(Z,E,E,Z)-eicosatetraenoic acid]","release of α-Defensins in plasma, dose dependence","[1]; i.v. bolus once daily for 7 days, 0.05 to 50 μg/kg, versus placebo group",triggered dose-dependent release of α-Defensins
same,increase in plasmatic α-Defensins,"[1]; i.v., 0.5 μg/kg","although not significant, caused a measurable increase in plasmatic α-Defensins"
same,time of maximal effect on plasmatic α-Defensins post-LTB4 administration,"[1]; i.v., 0.5 μg/kg",two
same,time of peak α-Defensin levels,"[1]; i.v., 5 μg/kg and 50 μg/kg",2 h
same,time to significant increase of α-Defensin release following LTB4 injections,"[1]; i.v., 5 μg/kg and 50 μg/kg",30 min
same,peak α-Defensin levels over the placebo group,"[1]; i.v., 5 μg/kg and 50 μg/kg, at 2 hours, p<0.001",5-7 fold
same,time α-Defensin levels remained above the control levels post-LTB4 administration,"[1]; i.v., 5 μg/kg and 50 μg/kg, p<0.05",up to 6 hours
same,α-Defensins levels 24 hours post-LTB4 administration,"[1]; i.v., 24 hours",back to the pre-injection levels
same,α-Defensins release in plasma,"[1]; i.v., lowest dose of LTB4 (0.05 μg/kg)",did not significantly enhanced α-Defensins release
same,start of elevation in plasmatic MIP-1β levels post-LTB4 injection,[2]; 5-50 μg/kg,1 h
same,time of maximal plasmatic MIP-1β levels post-LTB4 injection,[2]; 5-50 μg/kg,2 h
same,MIP-1β plasmatic levels at 6 hours post-LTB4 administration,"[2]; 5-50 μg/kg, 6 hours",had returned to original levels
same,statistical significance of MIP-1β elevation versus placebo,"[2]; 5 and 50 μg/kg groups, n=4 per group, p<0.025",statistical significance was observed only for those that received the highest dose of LTB4
same,time α-Defensins levels remained at their highest post injection,"[3]; s.c., 50 μg/kg, followed by a gradual decrease",up to 4 hours
same,time of peak α-Defensins levels post LTB4 administration,"[3]; s.c., 5,5 μg/kg or 50 μg/kg",two
same,time α-Defensins levels in plasma remain relatively stable post-LTB4 administration,"[3]; s.c., 5,5 μg/kg or 50 μg/kg",up to 15 minutes
same,time α-Defensins levels started to increase,"[3]; s.c., 5,5 μg/kg or 50 μg/kg",30 min
same,course of α-Defensins levels after the peak,"[3]; s.c., 5,5 μg/kg, experiment ended at hour 6",started to drop by the fourth hour and continued to do so up to hour 6
same,time levels of α-Defensins remained above baseline values following LTB4 delivery,"[3]; s.c., both 5,5 μg/kg and 50 μg/kg",up to 6 hours
